The target in this experiment is T1, human GPR120 (Homo sapiens, UniProt Q5NUL3).
T1 construct: host or cells: HEK293 cells co-expressing Gqi5
T1 sequence (Q5NUL3 1-361): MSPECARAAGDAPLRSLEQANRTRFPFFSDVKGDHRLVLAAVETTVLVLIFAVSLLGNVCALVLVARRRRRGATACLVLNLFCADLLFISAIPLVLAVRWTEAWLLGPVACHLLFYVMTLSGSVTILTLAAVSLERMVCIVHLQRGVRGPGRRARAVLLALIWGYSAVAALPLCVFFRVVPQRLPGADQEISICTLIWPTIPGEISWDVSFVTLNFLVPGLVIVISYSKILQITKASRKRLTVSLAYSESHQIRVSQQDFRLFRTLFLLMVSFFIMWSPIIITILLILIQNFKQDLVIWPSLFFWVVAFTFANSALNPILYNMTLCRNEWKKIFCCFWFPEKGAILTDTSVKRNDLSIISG
In words: Intracellular Ca2+ assay in human GPR120 stable cell line (HEK293 co-expressing Gqi5), Flexstation. The format is cell-based. To be noted: % activity at 5 μM compared to the maximal activity of GW9508 at 6.7 μM (=100%); human GPR120 cells, Ca2+ fluorescence. An outline of the steps: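 HEK293 cells stably co-expressing Gqi5 and Flag-tagged human GPR120, loaded with Calcium 4 dye in HBSS/HEPES pH 7.4 at 37 °C; compounds at eight concentrations, 0.00001–20 μM, fluorescence (485/525 nm) read 90 s. EC50 from Max−Min change; percent activity relative to GW9508 maximum at 6.7 μM.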

`CC1(C)Cc2cc(Cl)cc(COc3ccc(C(C)(C)CC(=O)O)cc3)c2O1` [Example 156, 3-(4-((5-chloro-2,2-dimethyl-2,3-dihydrobenzofuran-7-yl)methoxy)phenyl)-3-methylbutanoic acid]: the “% Activity (GW9508 Reference Compound)” value amounted to 148.87%.

For `CC(Cc1ccc(OCc2cc(Cl)cc3c2OC2(CCCC2)C3)cc1)C(=O)O` (stereo not drawn) [Example 159, 3-(4-((5-chloro-3H-spiro[benzofuran-2,1′-cyclopentane]-7-yl)methoxy)phenyl)-2-methylpropanoic acid], the “% Activity (GW9508 Reference Compound)” value is recorded as 164.79%.

Regarding `CC1(C)Cc2cc(F)cc(COc3ccc(CCCC(=O)O)cc3)c2O1` [Example 160, 4-(4-((5-fluoro-2,2-dimethyl-2,3-dihydrobenzofuran-7-yl)methoxy)phenyl)butanoic acid], the “% Activity (GW9508 Reference Compound)” value is reported as 172.13%.

Turning to `CC(Cc1ccc(OCc2cc(F)cc3c2OC2(CCCC2)C3)cc1)C(=O)O` (stereo not drawn) [Example 162, 3-(4-((5-fluoro-3H-spiro[benzofuran-2,1′-cyclopentane]-7-yl)methoxy)phenyl)-2-methylpropanoic acid], the “% Activity (GW9508 Reference Compound)” value is listed as 154.48%.

As for `O=C(O)C1CC1c1ccc(OCc2cc(F)cc3c2OC2(CCCC2)C3)cc1` (stereo not drawn) [Example 165, 2-(4-((5-fluoro-3H-spiro[benzofuran-2,1′-cyclopentane]-7-yl)methoxy)phenyl)cyclopropanecarboxylic acid], the “% Activity (GW9508 Reference Compound)” value amounted to 158.08%.

For the compound `CC(CCc1ccc(OCc2cc(F)cc3c2OC(C)(C)C3)cc1)C(=O)O` (stereo not drawn) [Example 171, 4-(4-((5-fluoro-2,2-dimethyl-2,3-dihydrobenzofuran-7-yl)methoxy)phenyl)-2-methylbutanoic acid], the “% Activity (GW9508 Reference Compound)” value stood at 98.97%.

As to `COc1cc(CCC(=O)O)ccc1OCc1cc(F)cc2c1OC(C)(C)C2` [Example 173, 3-(4-((5-fluoro-2,2-dimethyl-2,3-dihydrobenzofuran-7-yl)methoxy)-3-methoxyphenyl)propanoic acid], the “% Activity (GW9508 Reference Compound)” value is 159.06%.

As to `CC1(C)Cc2cc(F)cc(COc3ccc4c(c3)CC[C@H]4CC(=O)O)c2O1` [Example 175, (S)-2-(5-((5-fluoro-2,2-dimethyl-2,3-dihydrobenzofuran-7-yl)methoxy)-2,3-dihydro-1H-inden-1-yl)acetic acid], the “% Activity (GW9508 Reference Compound)” value came to 152.44%.

In the case of `CC1(C)Cc2cc(Cl)cc(COc3ccc4c(c3)CC[C@H]4CC(=O)O)c2O1` [Example 176, (S)-2-(5-((5-chloro-2,2-dimethyl-2,3-dihydrobenzofuran-7-yl)methoxy)-2,3-dihydro-1H-inden-1-yl)acetic acid], the “% Activity (GW9508 Reference Compound)” value stood at 138.42%.

Regarding `CC1(C)Cc2cc(F)cc(COc3ccc4c(c3)CC[C@@H]4CC(=O)O)c2O1` [Example 178, (R)-2-(5-((5-fluoro-2,2-dimethyl-2,3-dihydrobenzofuran-7-yl)methoxy)-2,3-dihydro-1H-inden-1-yl)acetic acid], the “% Activity (GW9508 Reference Compound)” value was found to be 106%.

`CC1(C)Cc2cc(Cl)cc(COc3ccc4c(c3)CC[C@@H]4CC(=O)O)c2O1` [Example 179, (R)-2-(5-((5-chloro-2,2-dimethyl-2,3-dihydrobenzofuran-7-yl)methoxy)-2,3-dihydro-1H-inden-1-yl)acetic acid]: the “% Activity (GW9508 Reference Compound)” value worked out at 105.44%.

With `CC(CC(=O)O)Cc1ccc(OCc2cc(F)cc3c2OC(C)(C)C3)cc1` (stereo not drawn) [Example 182, 4-(4-((5-fluoro-2,2-dimethyl-2,3-dihydrobenzofuran-7-yl)methoxy)phenyl)-3-methylbutanoic acid], the “% Activity (GW9508 Reference Compound)” value is 98.43%.

In the case of `CC1(C)Cc2c(COc3ccc4c(c3)CC[C@@H]4CC(=O)O)cc(F)cc2O1` [Example 188, (R)-2-(5-((6-fluoro-2,2-dimethyl-2,3-dihydrobenzofuran-4-yl)methoxy)-2,3-dihydro-1H-inden-1-yl)acetic acid], the “% Activity (GW9508 Reference Compound)” value is 104.04%.

Take `COc1cc(OCc2cc(Cl)cc3c2OC2(CCCC2)C3)ccc1CCC(=O)O` [Example 194, 3-(4-((5-chloro-3H-spiro[benzofuran-2,1′-cyclopentane]-7-yl)methoxy)-2-methoxyphenyl)propanoic acid]: the “% Activity (GW9508 Reference Compound)” value turned out to be 148.21%.

For `CC1(C)Cc2cc(F)cc(COc3cc(Cl)c(CCC(=O)O)c(Cl)c3)c2O1` [Example 197, 3-(2,6-dichloro-4-((5-fluoro-2,2-dimethyl-2,3-dihydrobenzofuran-7-yl)methoxy)phenyl)propanoic acid], the “% Activity (GW9508 Reference Compound)” value is recorded as 151.44%.

Consider `Cc1cc(OCc2cc(F)cc3c2OC(C)(C)C3)c(C)cc1CCC(=O)O` [Example 206, 3-(4-((5-fluoro-2,2-dimethyl-2,3-dihydrobenzofuran-7-yl)methoxy)-2,5-dimethylphenyl)propanoic acid], for which the “% Activity (GW9508 Reference Compound)” value is 111.45%.

Consider `Cc1c(CCC(=O)O)ccc(OCc2cc(F)cc3c2OC(C)(C)C3)c1C` [Example 208, 3-(4-((5-fluoro-2,2-dimethyl-2,3-dihydrobenzofuran-7-yl)methoxy)-2,3-dimethylphenyl)propanoic acid], for which the “% Activity (GW9508 Reference Compound)” value came out at 147.47%.

Turning to `Cc1c(CCC(=O)O)ccc(OCc2cc(Cl)cc3c2OC(C)(C)C3)c1C` [Example 209, 3-(4-((5-chloro-2,2-dimethyl-2,3-dihydrobenzofuran-7-yl)methoxy)-2,3-dimethylphenyl)propanoic acid], the “% Activity (GW9508 Reference Compound)” value was 142.22%.

As to `Cc1cc(OCc2cc(F)cc3c2OC(C)(C)C3)c(F)cc1CCC(=O)O` [Example 214, 3-(5-fluoro-4-((5-fluoro-2,2-dimethyl-2,3-dihydrobenzofuran-7-yl)methoxy)-2-methylphenyl)propanoic acid], the “% Activity (GW9508 Reference Compound)” value came to 143.21%.

As for `CCc1c(CCC(=O)O)ccc(OCc2cc(F)cc3c2OC(C)(C)C3)c1F` [Example 216, 3-(2-ethyl-3-fluoro-4-((5-fluoro-2,2-dimethyl-2,3-dihydrobenzofuran-7-yl)methoxy)phenyl)propanoic acid], the “% Activity (GW9508 Reference Compound)” value amounted to 144.23%.

For `CC1(C)Cc2cc(F)cc(COc3ccc(CCC(=O)O)c4c3CCCC4)c2O1` [Example 218, 3-(4-((5-fluoro-2,2-dimethyl-2,3-dihydrobenzofuran-7-yl)methoxy)-5,6,7,8-tetrahydronaphthalen-1-yl)propanoic acid], the “% Activity (GW9508 Reference Compound)” value amounted to 114.48%.

With `CCc1cc(OCc2cc(F)cc3c2OC(C)(C)C3)c(F)cc1CCC(=O)O` [Example 220, 3-(2-ethyl-5-fluoro-4-((5-fluoro-2,2-dimethyl-2,3-dihydrobenzofuran-7-yl)methoxy)phenyl)propanoic acid], the “% Activity (GW9508 Reference Compound)” value was found to be 115.86%.

`[2H]C([2H])(Oc1ccc(CCC(=O)O)c(CC)c1F)c1cc(F)cc2c1OC(C)(C)C2` [Example 228, 3-(4-(dideuterio(5-fluoro-2,2-dimethyl-2,3-dihydrobenzofuran-7-yl)methoxy)-3-fluoro-2-ethylphenyl)propanoic acid]: the “% Activity (GW9508 Reference Compound)” value is listed as 119.11%.

Regarding `[2H]C([2H])(Oc1ccc(CC(C)C(=O)O)cc1F)c1cc(F)cc2c1OC(C)(C)C2` (stereo not drawn) [Example 230, 3-(4-(dideuterio(5-fluoro-2,2-dimethyl-2,3-dihydrobenzofuran-7-yl)methoxy)-3-fluorophenyl)-2-methylpropanoic acid], the “% Activity (GW9508 Reference Compound)” value worked out at 86.25%.

Take `[2H]C([2H])(Oc1ccc(CC(C)C(=O)O)cc1C(F)(F)F)c1cc(F)cc2c1OC(C)(C)C2` (stereo not drawn) [Example 231, 3-(4-(dideuterio(5-fluoro-2,2-dimethyl-2,3-dihydrobenzofuran-7-yl)methoxy)-3-(trifluoromethyl)phenyl)-2-methylpropanoic acid]: the “% Activity (GW9508 Reference Compound)” value was determined as 101.01%.

`[2H]C([2H])(C(=O)O)C([2H])([2H])c1ccc(OCc2cc(Cl)cc3c2OC(C)(C)C3)c(F)c1` [Example 241, 3-(4-((5-chloro-2,2-dimethyl-2,3-dihydrobenzofuran-7-yl)methoxy)-3-fluorophenyl)-2,2,3,3-tetradeuteriopropanoic acid]: the “% Activity (GW9508 Reference Compound)” value worked out at 159.62%.

For `[2H]C([2H])(C(=O)O)C([2H])([2H])c1ccc(OCc2cc(F)cc3c2OC(C)(C)C3)c(F)c1CC` [Example 243, 3-(2-ethyl-3-fluoro-4-((5-fluoro-2,2-dimethyl-2,3-dihydrobenzofuran-7-yl)methoxy)phenyl)-2,2,3,3-tetradeuteriopropanoic acid], the “% Activity (GW9508 Reference Compound)” value is given as 155.23%.

`CC1(C)Cc2cc(Cl)cc(COc3ccccc3CCC(=O)O)c2O1` [Example 250, 3-(2-((5-chloro-2,2-dimethyl-2,3-dihydrobenzofuran-7-yl)methoxy)phenyl)propanoic acid]: the “% Activity (GW9508 Reference Compound)” value is listed as 10.23%.

Consider `CC(Cc1cccc(OCc2cc(Cl)cc3c2OC(C)(C)C3)c1)C(=O)O` (stereo not drawn) [Example 251, 3-(3-((5-chloro-2,2-dimethyl-2,3-dihydrobenzofuran-7-yl)methoxy)phenyl)-2-methylpropanoic acid], for which the “% Activity (GW9508 Reference Compound)” value is listed as 61.14%.

As to `Cc1cc(CCC(=O)O)c(C)c(C)c1OCc1cc(F)cc2c1OC(C)(C)C2` [Example 254, 3-(4-((5-fluoro-2,2-dimethyl-2,3-dihydrobenzofuran-7-yl)methoxy)-2,3,5-trimethylphenyl) propanoic acid], the “% Activity (GW9508 Reference Compound)” value is recorded as 146.14%.

These data come from US20130109734A1 (Metabolex, Inc., priority 2010, published 2013).
